Assay results taken from the supplement of paper PMC7214452.

Key:
Experiment in all cases: normalized area under the dose-response curve (viability relative to DMSO control) (fraction); higher = less sensitive (more viable cells)
Conditions in all cases: exposure time not given
KMS11 (cancer type: MM) = tested on: KMS11 (cancer type: MM)
Protocol: (§1)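 25 myeloma and 15 non-Hodgkin lymphoma cell lines were exposed to each of 76 drugs as 7-point log dilutions (0.01 nM–10 µM) in duplicate. Viability was read with CellTiter-Glo and normalised to DMSO (0.1%) and staurosporine (10 µM) plate controls. Normalised AUC was calculated by the trapezoidal method relative to the negative control.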

OPM2 (cancer type: MM) = tested on: OPM2 (cancer type: MM)
Protocol: as §1

[1] = tested on: OCI-LY3 (cancer type: DLBCL)
Protocol: as §1

[2] = tested on: Karpas-299 (cancer type: TCL)
Protocol: as §1

LP1 (cancer type: MM) = tested on: LP1 (cancer type: MM)
Protocol: as §1

[3] = tested on: OCI-MY5/Vec (cancer type: MM)
Protocol: as §1

[4] = tested on: SU-DHL1 (cancer type: TCL)
Protocol: as §1

[5] = tested on: SU-DHL6 (cancer type: DLBCL)
Protocol: as §1

[6] = tested on: Mino (cancer type: Mantle)
Protocol: as §1

[7] = tested on: OCI-LY19 (cancer type: DLBCL)
Protocol: as §1

[8] = tested on: NCI-H929 (cancer type: MM)
Protocol: as §1

FR4 (cancer type: MM) = tested on: FR4 (cancer type: MM)
Protocol: as §1

[9] = tested on: Granta-519 (cancer type: Mantle)
Protocol: as §1

[10] = tested on: RPMI 8226 (cancer type: MM)
Protocol: as §1

[11] = tested on: KMS28BM (cancer type: MM)
Protocol: as §1

L363 (cancer type: MM) = tested on: L363 (cancer type: MM)
Protocol: as §1

AMO1 (cancer type: MM) = tested on: AMO1 (cancer type: MM)
Protocol: as §1

XG2 (cancer type: MM) = tested on: XG2 (cancer type: MM)
Protocol: as §1

U266 (cancer type: MM) = tested on: U266 (cancer type: MM)
Protocol: as §1

[12] = tested on: OCI-MY7 (cancer type: MM)
Protocol: as §1

SKMM2 (cancer type: MM) = tested on: SKMM2 (cancer type: MM)
Protocol: as §1

Se-Ax (cancer type: TCL) = tested on: Se-Ax (cancer type: TCL)
Protocol: as §1

My-La (cancer type: TCL) = tested on: My-La (cancer type: TCL)
Protocol: as §1

[13] = tested on: KMS28PE (cancer type: MM)
Protocol: as §1

MM1.R (cancer type: MM) = tested on: MM1.R (cancer type: MM)
Protocol: as §1

KMS34 (cancer type: MM) = tested on: KMS34 (cancer type: MM)
Protocol: as §1

JJN3 (cancer type: MM) = tested on: JJN3 (cancer type: MM)
Protocol: as §1

KMS18 (cancer type: MM) = tested on: KMS18 (cancer type: MM)
Protocol: as §1

[14] = tested on: OCI-MY5 (cancer type: MM)
Protocol: as §1

[15] = tested on: SU-DHL2 (cancer type: DLBCL)
Protocol: as §1

[16] = tested on: KMS12PE (cancer type: MM)
Protocol: as §1

EJM (cancer type: MM) = tested on: EJM (cancer type: MM)
Protocol: as §1

[17] = tested on: OCI-LY1 (cancer type: DLBCL)
Protocol: as §1

[18] = tested on: JVM2 (cancer type: Mantle)
Protocol: as §1

[19] = tested on: HuT 78 (cancer type: TCL)
Protocol: as §1

[20] = tested on: OCI-MY5/CRBN (cancer type: MM)
Protocol: as §1

[21] = tested on: SR-786 (cancer type: TCL)
Protocol: as §1

[22] = tested on: JeKo-1 (cancer type: Mantle)
Protocol: as §1

MM1.S (cancer type: MM) = tested on: MM1.S (cancer type: MM)
Protocol: as §1

KMS26 (cancer type: MM) = tested on: KMS26 (cancer type: MM)
Protocol: as §1

Compound	normalized area under the dose-response curve (KMS11 (cancer type: MM))	normalized area under the dose-response curve (OPM2 (cancer type: MM))	normalized area under the dose-response curve [1]	normalized area under the dose-response curve [2]	normalized area under the dose-response curve (LP1 (cancer type: MM))	normalized area under the dose-response curve [3]	normalized area under the dose-response curve [4]	normalized area under the dose-response curve [5]	normalized area under the dose-response curve [6]	normalized area under the dose-response curve [7]	normalized area under the dose-response curve [8]	normalized area under the dose-response curve (FR4 (cancer type: MM))	normalized area under the dose-response curve [9]	normalized area under the dose-response curve [10]	normalized area under the dose-response curve [11]	normalized area under the dose-response curve (L363 (cancer type: MM))	normalized area under the dose-response curve (AMO1 (cancer type: MM))	normalized area under the dose-response curve (XG2 (cancer type: MM))	normalized area under the dose-response curve (U266 (cancer type: MM))	normalized area under the dose-response curve [12]	normalized area under the dose-response curve (SKMM2 (cancer type: MM))	normalized area under the dose-response curve (Se-Ax (cancer type: TCL))	normalized area under the dose-response curve (My-La (cancer type: TCL))	normalized area under the dose-response curve [13]	normalized area under the dose-response curve (MM1.R (cancer type: MM))	normalized area under the dose-response curve (KMS34 (cancer type: MM))	normalized area under the dose-response curve (JJN3 (cancer type: MM))	normalized area under the dose-response curve (KMS18 (cancer type: MM))	normalized area under the dose-response curve [14]	normalized area under the dose-response curve [15]	normalized area under the dose-response curve [16]	normalized area under the dose-response curve (EJM (cancer type: MM))	normalized area under the dose-response curve [17]	normalized area under the dose-response curve [18]	normalized area under the dose-response curve [19]	normalized area under the dose-response curve [20]	normalized area under the dose-response curve [21]	normalized area under the dose-response curve [22]	normalized area under the dose-response curve (MM1.S (cancer type: MM))	normalized area under the dose-response curve (KMS26 (cancer type: MM))
CO[C@H]1C[C@@H]2CC[C@@H](C)[C@@](O)(O2)C(=O)C(=O)N2CCCC[C@H]2C(=O)O[C@H]([C@H](C)C[C@@H]2CC[C@@H](OCCO)[C@H](OC)C2)CC(=O)[C@H](C)/C=C(\C)[C@@H](O)[C@@H](OC)C(=O)[C@H](C)C[C@H](C)/C=C/C=C/C=C/1C [Everolimus]	0.674	0.593	0.785	0.682	0.831	0.819	0.639	0.685	0.72	0.592	0.71	0.758	0.783	0.769	0.813	0.627	0.637	0.505	0.606	0.83	0.802	0.545	0.711	0.699	0.63	0.557	0.656	0.617	0.676	0.566	0.72	0.661	0.665	0.64	0.699	0.829	0.729	0.876	0.63	0.76
Nc1nc(F)nc2c1ncn2[C@@H]1O[C@H](COP(=O)(O)O)[C@@H](O)[C@@H]1O [Fludarabine phosphate]	0.746	0.859	0.962	0.885	0.938	1	0.888	0.927	0.844	1.02	0.9	0.858	0.949	0.767	0.834	0.781	0.813	0.857	0.812	0.95	0.88	0.798	0.879	0.767	0.92	0.785	0.934	0.894	0.788	0.918	0.94	0.882	0.866	0.855	0.911	0.972	0.914	0.912	0.87	0.863
C=CC(=O)N1CCC[C@@H](n2nc(-c3ccc(Oc4ccccc4)cc3)c3c(N)ncnc32)C1 [Ibrutinib]	0.738	0.676	0.829	0.845	0.892	0.88	0.746	0.852	0.681	0.865	0.84	0.793	0.798	0.765	0.786	0.759	0.715	0.863	0.726	1	0.922	0.739	0.782	0.723	0.77	0.518	0.728	0.916	0.628	0.903	0.74	0.857	0.636	0.668	0.928	0.937	0.825	0.686	0.81	0.763
COc1cc(C(=O)O)ccc1NC(=O)[C@@H]1N[C@@H](CC(C)(C)C)[C@](C#N)(c2ccc(Cl)cc2F)[C@H]1c1cccc(Cl)c1F [Idasanutlin]	0.868	0.861	0.967	0.86	0.955	0.902	0.877	0.898	0.928	0.92	0.79	0.837	0.873	0.943	0.935	0.834	0.732	0.838	0.773	0.92	0.962	0.82	0.937	0.922	0.84	0.751	0.88	0.831	0.834	0.961	0.96	0.858	0.959	0.832	0.825	0.852	0.861	0.852	0.81	0.798
CC[C@H](Nc1ncnc2[nH]cnc12)c1nc2cccc(F)c2c(=O)n1-c1ccccc1 [Idelalisib]	0.87	0.931	0.809	0.891	0.832	0.903	0.782	0.694	0.882	0.806	0.78	0.872	0.78	0.826	0.818	0.815	0.831	0.832	0.859	0.89	0.897	0.731	0.81	0.879	0.74	0.728	0.834	0.978	0.742	0.962	0.85	0.942	0.737	0.606	0.85	0.941	0.916	0.842	0.78	0.876
Cc1ccc(NC(=O)c2ccc(CN3CCN(C)CC3)cc2)cc1Nc1nccc(-c2cccnc2)n1 [Imatinib]	0.714	0.752	0.935	0.876	0.785	0.804	0.774	0.92	0.958	0.928	0.93	0.816	0.943	0.885	0.902	0.749	0.789	0.839	0.783	0.93	0.926	0.79	0.98	0.79	0.84	0.562	0.789	0.807	0.793	0.943	0.9	0.887	1	0.759	0.9	0.892	0.934	0.915	0.88	0.918
Nc1cccc2c1CN(C1CCC(=O)NC1=O)C2=O (stereo not given) [Lenalidomide]	0.758	0.846	0.802	0.875	0.847	0.999	0.812	0.847	0.897	0.758	0.74	0.852	0.891	0.915	0.819	0.785	0.799	0.861	0.858	0.78	0.874	0.709	0.944	0.899	0.68	0.662	0.822	0.805	0.786	0.785	0.74	0.836	0.825	0.657	0.828	0.928	0.992	0.874	0.66	0.785
COc1cc2nccc(Oc3ccc(NC(=O)NC4CC4)c(Cl)c3)c2cc1C(N)=O [Lenvatinib]	0.814	0.892	0.931	0.885	0.863	0.949	0.909	0.964	0.97	0.87	0.92	1.02	0.948	0.918	0.877	0.88	0.963	0.905	0.992	0.92	0.943	0.883	0.94	0.877	0.85	0.912	0.897	0.977	0.84	0.937	0.94	0.97	0.936	0.723	0.866	0.944	0.953	0.938	0.88	0.884
